Where only a bound is given, the exact number is not on record here.

These results are taken from patent US9714238B2, “Therapeutic agents for ocular hypertension” (Allergan, Inc., priority 2010, dated 2017).

Series [1] deals with T1, EP2 (Homo sapiens, UniProt P43116). The series is described as follows: EP2 cAMP functional assay. The format is cell-based. To be noted: unit inferred. As for the experimental part: (§1) Data from running binding and activity studies on the compounds of the invention were carried out as described in the U.S. Pat. No. 7,427,685, the contents of which are incorporated herein by reference.

Series [2] addresses T1, EP2. The series is described as follows: EP2 binding. Conditions: unit inferred. As for the experimental part: as §1
Series [3] addresses T2, EP4 (Homo sapiens, UniProt P35408). The series is described as follows: EP4 binding. To be noted: unit inferred. As for the experimental part: as §1
In series [4] the target is T2, EP4. The series is described as follows: EP4 flipr functional assay. The format is cell-based. Conditions: unit inferred. As for the experimental part: as §1
A further series concerns normotensive dogs. In words: Intraocular pressure and ocular surface hyperemia in normotensive dogs. The format is in vivo, dog. As for the experimental part:
Isopropyl 2-(3-(6-hexyl-1-naphthamido)phenoxy)acetate was tested in normotensive dogs at 0.05%, dosing once daily for 5 days. The maximum intraocular pressure (IOP) decrease from baseline was 4.7 mmHg (28%) at 30 h; the maximum ocular surface hyperemia (OSH) score was 1.0 at 26 h. This compound was also tested in laser-induced hypertensive monkeys, using one single day dose. At 0.05%, the maximum IOP decrease from baseline was 17.1 mmHg (48%) at 24 h.
Isopropyl 2-(3-(6-(1-hydroxyhexyl)-1-naphthamido)phenoxy)acetate was tested in normotensive dogs at two concentrations, dosing once daily for 5 days. At 0.005%, the maximum intraocular pressure (IOP) decrease from baseline was 4.1 mmHg (22%) at 4 h; the maximum ocular surface hyperemia (OSH) score was 1.6 at 2 h. At 0.01%, the maximum intraocular pressure (IOP) decrease from baseline was 4.4 mmHg (26%) at 4 h; the maximum ocular surface hyperemia (OSH) score was 1.5 at 50 h. This compound was also tested in laser-induced hypertensive monkeys at two concentrations, using one single day dose. At 0.005%, the maximum IOP decrease from baseline was 8.1 mmHg (30%) at 24 h. At 0.01%, the maximum IOP decrease from baseline was 15.4 mmHg (42%) at 24 h.
Isopropyl 2-(3-(6-butyl-1-naphthamido)phenoxy)acetate was tested in normotensive dogs at 0.01%, dosing once daily for 4 days. The maximum intraocular pressure (IOP) decrease from baseline was 5.1 mmHg (26%) at 78 h; the maximum ocular surface hyperemia (OSH) score was 0.9 at 4 h. This compound was also tested in laser-induced hypertensive monkeys, using one single day dose. At 0.01%, the maximum IOP decrease from baseline was 14.1 mmHg (38%) at 24 h.
Isopropyl 2-(3-(3-hexylquinoline-8-carboxamido)phenoxy)acetate was tested in normotensive dogs at 0.01%, dosing once daily for 5 days. The maximum intraocular pressure (IOP) decrease from baseline was 2.8 mmHg (14%) at 100 h; the maximum ocular surface hyperemia (OSH) score was 0.8 at 28 h. This compound was also tested in laser-induced hypertensive monkeys, using one single day dose. At 0.01%, the maximum IOP decrease from baseline was 8.8 mmHg (19%) at 6 h.

Series [5] has as its target T2, EP4. In words: EP4 cAMP functional assay. The format is cell-based. To be noted: unit inferred. As for the experimental part: as §1
A further series has as its target T3, hEP3A (Homo sapiens, UniProt P43115).
T3 sequence (P43115 1-390): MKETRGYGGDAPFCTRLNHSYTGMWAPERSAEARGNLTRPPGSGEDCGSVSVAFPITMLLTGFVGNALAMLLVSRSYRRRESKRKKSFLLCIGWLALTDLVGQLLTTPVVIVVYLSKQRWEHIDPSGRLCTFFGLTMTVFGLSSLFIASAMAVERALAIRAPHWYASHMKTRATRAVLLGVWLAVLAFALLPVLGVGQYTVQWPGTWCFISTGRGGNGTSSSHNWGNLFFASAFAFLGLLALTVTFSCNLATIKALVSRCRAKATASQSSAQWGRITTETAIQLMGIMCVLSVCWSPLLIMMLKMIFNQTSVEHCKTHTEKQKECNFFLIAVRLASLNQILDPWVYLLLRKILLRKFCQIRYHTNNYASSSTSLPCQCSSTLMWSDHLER
In words: Other receptors functional activity, hEP3A. The format is cell-based. As for the experimental part: as §1

The next series deals with T4, hTP (Homo sapiens, UniProt P21731).
T4 sequence (P21731 1-343): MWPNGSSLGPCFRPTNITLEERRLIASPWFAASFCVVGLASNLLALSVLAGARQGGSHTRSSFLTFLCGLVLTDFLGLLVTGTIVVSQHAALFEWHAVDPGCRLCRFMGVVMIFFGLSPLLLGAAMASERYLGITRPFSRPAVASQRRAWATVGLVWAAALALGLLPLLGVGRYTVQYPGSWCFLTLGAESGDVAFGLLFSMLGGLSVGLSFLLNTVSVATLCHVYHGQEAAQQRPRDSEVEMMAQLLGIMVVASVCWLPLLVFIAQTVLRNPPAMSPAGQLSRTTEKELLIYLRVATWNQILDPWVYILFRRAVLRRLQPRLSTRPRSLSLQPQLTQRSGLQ
In words: Other receptors functional activity, hTP. The class given is cell-based. As for the experimental part:
as §1

T2 sequence (P35408 whole entry): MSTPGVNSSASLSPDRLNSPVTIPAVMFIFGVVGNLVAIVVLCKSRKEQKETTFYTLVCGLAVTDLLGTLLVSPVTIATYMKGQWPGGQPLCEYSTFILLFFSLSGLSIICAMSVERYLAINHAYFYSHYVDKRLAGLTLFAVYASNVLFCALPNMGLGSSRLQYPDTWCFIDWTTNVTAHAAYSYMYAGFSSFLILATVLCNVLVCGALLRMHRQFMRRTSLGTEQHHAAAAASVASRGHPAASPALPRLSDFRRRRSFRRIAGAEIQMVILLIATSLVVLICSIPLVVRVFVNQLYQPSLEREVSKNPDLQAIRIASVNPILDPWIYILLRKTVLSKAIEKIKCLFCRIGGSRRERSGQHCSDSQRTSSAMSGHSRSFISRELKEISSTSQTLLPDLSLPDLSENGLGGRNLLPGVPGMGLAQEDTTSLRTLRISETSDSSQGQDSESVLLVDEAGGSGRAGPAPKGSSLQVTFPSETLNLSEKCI
T1 sequence (P43116 whole entry): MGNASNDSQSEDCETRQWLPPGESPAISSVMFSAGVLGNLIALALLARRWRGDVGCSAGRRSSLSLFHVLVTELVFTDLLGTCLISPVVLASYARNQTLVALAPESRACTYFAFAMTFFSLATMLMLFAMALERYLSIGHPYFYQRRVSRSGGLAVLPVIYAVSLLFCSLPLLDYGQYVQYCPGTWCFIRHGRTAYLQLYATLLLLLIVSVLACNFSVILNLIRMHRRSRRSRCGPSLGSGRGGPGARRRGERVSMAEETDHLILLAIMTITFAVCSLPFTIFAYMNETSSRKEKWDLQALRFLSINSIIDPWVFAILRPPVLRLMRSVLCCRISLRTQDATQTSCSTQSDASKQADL

Turning to `CCc1ccc2c(C(=O)Nc3cccc(OCC(=O)O)c3)cccc2c1` [Example 6, 2-(3-(6-Ethyl-1-naphthamido)phenoxy)acetic acid], the concentration giving a half-maximal response (EC50) (as a rule, the concentration at which the effect is half-maximal) on EP2 [1] was found to be 5 nM. Besides, the inhibitory constant (Ki) – broadly, a dissociation constant, usually derived from enzyme kinetics or from competition with a known ligand – is 112 nM at EP2 [2] and above 10000 nM on EP4 [3].
As to `CCCCCCc1ccc2c(C(=O)NCCc3ccc(C(=O)O)s3)cccc2c1` [Example 9, 5-(2-(6-Hexyl-1-naphthamido)ethyl)thiophene-2-carboxylic acid], the EC50 at EP2 [1] was 25 nM; at EP4 [4] it was 9400 nM. Further, the Ki on EP2 [2] is 3210 nM; at EP4 [3], 2450 nM.
`CCCCc1ccc2c(C(=O)Nc3cccc(OCC(=O)O)c3)cccc2c1` [Example 3, 2-(3-(6-Butyl-1-naphthamido)phenoxy)acetic acid] came in with an EC50 on EP2 [1] of 1 nM. Further, the Ki is 51 nM at EP2 [2] and above 10000 nM on EP4 [3].
For `CCCCCCc1cnc2c(C(=O)Nc3cccc(OCC(=O)OC(C)C)c3)cccc2c1` [Isopropyl 2-(3-(3-hexylquinoline-8-carboxamido)phenoxy)acetate], the “maximum ocular surface hyperemia (OSH) score” value in the series on normotensive dogs (0.01%, once daily for 5 days, at 28 h) is listed as 0.8.
For the compound `CCCc1ccc2c(C(=O)Nc3cccc(OCC(=O)O)c3)cccc2c1` [Example 5, 2-(3-(6-Propyl-1-naphthamido)phenoxy)acetic acid], the EC50 amounted to 5 nM at EP2 [1] and 7130 nM on EP4 [4]. Besides, the Ki came to 30 nM at EP2 [2] and 6920 nM on EP4 [3].
In the case of `CCCCCC(O)c1ccc2c(C(=O)Nc3cccc(OCC(=O)OC(C)C)c3)cccc2c1` (centres unmarked) [Isopropyl 2-(3-(6-(1-hydroxyhexyl)-1-naphthamido)phenoxy)acetate], the “maximum ocular surface hyperemia (OSH) score” value with normotensive dogs (0.005%, once daily for 5 days, at 2 h) was determined as 1.6; in the series with normotensive dogs (0.01%, once daily for 5 days, at 50 h), 1.5.
As to `CCCCc1cnc2c(C(=O)Nc3cccc(OCC(=O)O)c3)cccc2c1` [Example 13, 2-(3-(3-Butylquinoline-8-carboxamido)phenoxy)acetic acid], the EC50 on EP2 [1] is 2 nM; on EP4 [5], above 10000 nM. In addition, the Ki on EP2 [2] turned out to be 27 nM; at EP4 [3] it was 2060 nM.
At EP2 [1], `CCCC(O)c1ccc2c(C(=O)Nc3cccc(OCC(=O)O)c3)cccc2c1` (centres unmarked) [Example 11, 2-(3-(6-(1-Hydroxybutyl)-1-naphthamido)phenoxy)acetic acid] yielded an EC50 of 0.7 nM. For the same compound, the Ki was found to be 63 nM on EP2 [2] and 5310 nM on EP4 [3].
As to `CCCCCCc1ccc2c(C(=O)Nc3cccc(OCC(=O)O)c3)cccc2c1` [Example 1, 2-(3-(6-Hexyl-1-naphthamido)phenoxy)acetic acid], the EC50 on EP2 [1] turned out to be 2 nM. Also, the Ki on EP2 [2] is 99 nM; on EP4 [3], above 10000 nM.
For `CCCCCCc1ccc2c(C(=O)Nc3cccc(OCC(=O)OC(C)C)c3)cccc2c1` [Isopropyl 2-(3-(6-hexyl-1-naphthamido)phenoxy)acetate], the “maximum ocular surface hyperemia (OSH) score” value in the series with normotensive dogs (0.05%, once daily for 5 days, at 26 h) is reported as 1.0.
Consider `Cc1ccc2c(C(=O)Nc3cccc(OCC(=O)O)c3)cccc2c1` [Example 7, 2-(3-(6-Methyl-1-naphthamido)phenoxy)acetic acid], for which the EC50 on EP2 [1] worked out at 65 nM. The Ki on EP2 [2] is 1190 nM; on EP4 [3], above 10000 nM.
Regarding `CCCCc1cnc2c(C(=O)NCCc3ccc(C(=O)O)s3)cccc2c1` [Example 14, 5-(2-(3-Butylquinoline-8-carboxamido)ethyl)thiophene-2-carboxylic acid], the EC50 at EP2 [1] is 12 nM; on EP4 [5] it was above 10000 nM. Moreover, the Ki stood at 350 nM at EP2 [2] and 2030 nM at EP4 [3].
Compound `O=C(O)COc1cccc(NC(=O)c2cccc3ccccc23)c1` [Example 8, 2-(3-(1-Naphthamido)phenoxy)acetic acid] had an EC50 at EP2 [1] of 83 nM. The figures for the Ki on EP2 [2] and at EP4 [3] were 4600 nM and above 10000 nM, respectively.
`CCCCCC(O)c1ccc2c(C(=O)Nc3cccc(OCC(=O)O)c3)cccc2c1` (centres unmarked) [Example 10, 2-(3-(6-(1-hydroxyhexyl)-1-naphthamido)phenoxy)acetic acid]: the EC50 at EP2 [1] was determined as 0.2 nM. For the same compound, the Ki at EP2 [2] is 37 nM; on EP4 [3] it was above 10000 nM.
On to `CCCCCCCc1ccc2c(C(=O)Nc3cccc(OCC(=O)O)c3)cccc2c1` [Example 4, 2-(3-(6-Heptyl-1-naphthamido)phenoxy)acetic acid], for which the EC50 at EP2 [1] is 15 nM; at EP4 [4], above 10000 nM. The Ki at EP2 [2] was 1200 nM; on EP4 [3] it was 7680 nM.
Regarding `CCCCCCc1cnc2c(C(=O)Nc3cccc(OCC(=O)O)c3)cccc2c1` [Example 12, 2-(3-(3-Hexylquinoline-8-carboxamido)phenoxy)acetic acid], the EC50 on EP2 [1] came out at 0.8 nM; on EP4 [4], 4680 nM; on hEP3A it was 13300 nM; at hTP, 6560 nM. The Ki turned out to be 25 nM on EP2 [2] and 2150 nM at EP4 [3].
With `CCCCc1ccc2c(C(=O)Nc3cccc(OCC(=O)OC(C)C)c3)cccc2c1` [Isopropyl 2-(3-(6-butyl-1-naphthamido)phenoxy)acetate], the “maximum ocular surface hyperemia (OSH) score” value with normotensive dogs (0.01%, once daily for 4 days, at 4 h) came out at 0.9.
On EP2 [1], `CCCCCc1ccc2c(C(=O)Nc3cccc(OCC(=O)O)c3)cccc2c1` [Example 2, 2-(3-(6-Pentyl-1-naphthamido)phenoxy)acetic acid] displayed an EC50 of 2 nM. Moreover, the results for the inhibition constant (Ki) at EP2 [2] and on EP4 [3] were 383 nM and above 10000 nM, respectively.
Turning to `CCCCCOc1ccc2c(C(=O)Nc3cccc(OCC(=O)O)c3)cccc2c1` [Example 15, 2-(3-(6-(Pentyloxy)-1-naphthamido)phenoxy)acetic acid], the EC50 at EP2 [1] was 25 nM; at EP4 [5], above 10000 nM. Besides, the Ki on EP2 [2] amounted to 201 nM; at EP4 [3], 8480 nM.
